According to PMC9127750, “Structure-based design of CDC42 effector interaction inhibitors for the treatment of cancer” (Cell reports, 2022):
“Also recorded” adds a separate entry of the source.

What was measured:
[1] = target: T1, RHOJ and PAK1-PBD interaction (Homo sapiens, UniProt Q9H4E5); experiment: CDC42 interaction assay (PAK1-PBD pull-down); type: cell-based; details: WM3248 cells; ARN22089 at 10 and 50 μM, lysates incubated with GTP; ARN12405 indicated doses (Fig S2B)
T1 construct: endogenous in cells; host or cells: WM3248 (or WM983B) melanoma cells; PAK1 PBD beads from Cell Biolabs kit
Procedure: (§1) 24 hours later the lysates from treated and untreated cells were unloaded of guanosine nucleotides and either loaded with GDP or GTPγS. […] Precipitated lysates were then immunoblotted with indicated antibodies.

[2] = target: T2, CDC42 and PAK1-PBD interaction (Homo sapiens, UniProt P60953); experiment: CDC42 interaction assay (PAK1-PBD pull-down); type: cell-based; details: WM3248 cells; ARN22089 at 10 and 50 μM, lysates incubated with GTP; ARN12405 indicated doses (Fig S2B)
T2 construct: endogenous in cells; host or cells: WM3248 (or WM983B) melanoma cells; PAK1 PBD beads from Cell Biolabs kit
Procedure: as §1

WM3248 = experiment: cells; details: Homo sapiens, WM3248, read-out: IC50 WM3248
Procedure: (§2) Cancer cell line viability assay was performed using a CellTiterGlo assay. Cells were cultured in their appropriate media and seeded in white multi-well plates. For the assays, cells were incubated with compound at 37°C overnight, and a CellTiterGlo assay was performed to quantify viable cells.

[3] = system: WM3248, SKMel3, A375, SW480, and SKM28; experiment: cells; details: Homo sapiens, read-out: IC50 across cancer cell lines
Procedure: as §2

SKMel28 melanoma cells = experiment: Cancer cell line viability assay (CellTiterGlo); type: cell-based, Human; details: for decrease of activity compared with the hit: SKM28 cells, versus ARN12405; for dose response in SKM28 cell lines: Figure S2F
A375 VMT = experiment: Vascularized microtumor (VMT) assay; type: cell-based, Human; details: 2 μM
Procedure: (§3) Briefly, human endothelial colony-forming cell-derived endothelial cells (ECFC-EC) are isolated from cord blood via selection for the CD31 + cell population and cultured in EGM2 medium (Lonza). […] Cancer cells and LF are cultured in DMEM (Corning) containing 10% FBS (Gemini Bio). […] To load the microfluidic device, ECFC-EC and LF (both 8 × 10^6 cells/mL) and cancer cells (2.5 × 10^6 cells/mL) were resuspended in fibrinogen solution (10 mg/mL basal medium). The cell slurry was then mixed with 1 mL thrombin (3 U/mL) to catalyze gel solidification and quickly loaded into the tissue chambers of each VMT unit. […] All cells and VMTs are cultured in a 37°C, 20% O2, 5% O2 environment.
(§4) Fluorescence images were acquired with an Olympus IX70 inverted microscope using SPOT software (SPOT Imaging, Sterling Heights, Michigan). […] Each chamber was normalized to time 0 baseline.

[4] = system: VMOs (vessels, no tumor cells); experiment: Vascularized micro-organ (VMO) assay; type: cell-based, Human; details: no tumor cells (Figure 4D)
Procedure: as §3, §4

T2 sequence (P60953 1-188 limits assumed): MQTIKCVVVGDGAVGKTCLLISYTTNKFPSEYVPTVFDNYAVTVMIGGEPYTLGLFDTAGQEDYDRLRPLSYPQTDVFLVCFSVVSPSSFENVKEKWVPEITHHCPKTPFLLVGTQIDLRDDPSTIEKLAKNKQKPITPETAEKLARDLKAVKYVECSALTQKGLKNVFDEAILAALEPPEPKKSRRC
T1 sequence (Q9H4E5 1-211 limits assumed): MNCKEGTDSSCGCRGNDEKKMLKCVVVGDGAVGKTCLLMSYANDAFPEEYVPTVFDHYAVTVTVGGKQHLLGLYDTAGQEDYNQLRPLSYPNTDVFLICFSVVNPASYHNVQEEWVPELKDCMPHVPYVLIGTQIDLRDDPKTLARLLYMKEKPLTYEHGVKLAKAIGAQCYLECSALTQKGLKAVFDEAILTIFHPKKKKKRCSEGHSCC

Clc1ccc(Nc2cc(-c3ccncc3)nc(C3CCCNC3)n2)cc1 (centres unmarked) [ARN12405]
inhibition of RHOJ - PAK1-PBD interaction [1]: inhibits RHOJ/CDC42-PAK interactions; also recorded: blocked the RHOJ/CDC42 PAK interaction
inhibition of CDC42 - PAK1-PBD interaction [2]: inhibits RHOJ/CDC42-PAK interactions; also recorded: blocked the RHOJ/CDC42 PAK interaction

Clc1ccc(Nc2cc(-c3ccccc3)nc(C3CCCNC3)n2)cc1 (centres unmarked) [ARN21698]
IC50 (WM3248): 8.42 µM
IC50 [3]: 6.3 to 10.9 µM

c1ccc(Nc2cc(-c3ccncc3)nc(C3CCCNC3)n2)cc1 (centres unmarked) [ARN21699]
decrease of activity compared with the hit (SKMel28 melanoma cells): 2 fold

Clc1cccc(Nc2cc(-c3ccncc3)nc(C3CCCNC3)n2)c1 (centres unmarked) [ARN21700]
decrease of activity compared with the hit (SKMel28 melanoma cells): 2 fold
IC50 (WM3248): 30.9 µM

COc1ccc(Nc2cc(-c3ccccc3)nc(C3CCOCC3)n2)cc1 [ARN22162, N-(4-methoxyphenyl)-6-phenyl-2-tetrahydropyran-4-yl-pyrimidin-4-amine]
dose response in SKM28 cell lines (SKMel28 melanoma cells): no dose response

CN(C)c1ccc(Nc2cc(-c3ccccc3)nc(C3CCOCC3)n2)cc1 [ARN22163, N4,N4-dimethyl-N1-(6-phenyl-2-tetrahydropyran-4-yl-pyrimidin-4-yl)benzene-1,4-diamine]
dose response in SKM28 cell lines (SKMel28 melanoma cells): no dose response

CCn1c(=O)c(-c2ccc(-c3cncs3)cc2Cl)cc2cnc(Nc3ccc(N4CCN(C)CC4)cc3)nc21 [FRAX597]
growth of A375 cells and blood vessels in VMT (A375 VMT): did not significantly inhibit

Cc1ccc(F)c(NC(=O)Nc2ccc(-c3cccc4[nH]nc(N)c34)cc2)c1 [linifanib]
vessel growth / angiogenesis in VMOs [4]: did inhibit angiogenesis
